Laboratory results: patent US9096607B2, “Tumor necrosis factor inhibitors” (THE TRUSTEES OF THE UNIVERSITY OF PENNSYLVANIA, priority 2005, dated 2015)

Test system: L929 cells
Experiment: Inhibition of TNF-α mediated cytolysis of L929 cells (Alamar Blue)
Assay type: cell-based, murine
Settings: TNF-α 100 pg/mL, actinomycin D 1 μM; for % Inhibition at: 25 μM: 25 μM compound; for % Inhibition at: 50 μM: 50 μM compound; for % Inhibition at: 100μM: 100 μM compound
Description: L929 cultured murine fibroblasts cells were obtained from American Type Culture Collection (Manassas, Va.). Tissue culture reagents were from Invitrogen or Sigma-Aldrich. TNF-α and Actinomycin D were from Sigma-Aldrich. Alamar Blue reagents (Cell Titer Blue™) were from Promega. The test compounds I-1 through I-16, II-1 through II-8, and III-1 through III-3 were obtained commercially or can be prepared as described above. The test compounds were individually dissolved in dimethylsulfoxide (DMSO). The test compounds were maintained at 4° C. when not in use. Other reagents were high-purity (ACS-grade, HPLC-grade, MilliQ water, or similar).
Stock L929 cells were grown on tissue culture plastic in complete DMEM (Dulbecco's Modified Eagles Medium) supplemented with 10% FBS (Fetal Bovine Serum), NEAA (non-essential amino acids), and glutamine. L929 cells were plated using the same medium on 96-well tissue culture plates at high density (i.e., ˜4×10^4 cells/well, or similar) before use.
Approximately 20 h after plating, the L929 cells on 96-well plates were re-fed with fresh medium containing one of the test compounds in a concentration selected from 100 μM, 50 μM, 25 μM as a “pre-treatment.” Approximately 30-60 min later, samples were treated with an additional amount of test compound (in the same amount and at the same concentration as the pre-treatment) prepared in medium containing TNF-α (200 pg/mL), and actinomycin D (2 μM). The final concentration of TNF-α in assays was 100 pg/mL. The final concentration of actinomycin D in assays was 1 μM. The plates were incubated for an additional 22-23 h, the Alamar Blue assay reagents were added and metabolic cell viability was determined from reduction of a fluorogenic Alamar Blue derivative.
The temperature was maintained at 37° C. with 5% CO2 and humidified. The metabolic viability was measured 1-2 h after addition of assay reagents/Alamar Blue derivative using TECAN SaFire fluorescence plate reader (Tecan Group Ltd., Maennedorf, Switzerland).
Inhibition of TNF-α induced cytolysis by a test compound (X) at a given concentration (y) was calculated as follows: […]

CN(C)c1ccc(C(O)(c2ccc(N(C)C)cc2)c2ccc(N(C)C)cc2)cc1 [Compound I-1, 1,1,1-Tris-(4-dimethylaminophenyl)methanol]
% Inhibition at: 25 μM: 44.0%
% Inhibition at: 50 μM: 63.3%
% Inhibition at: 100μM: 40.9%

CC(c1ccc(OCC(=O)[O-])cc1)(c1ccc(OCC(=O)[O-])cc1)c1ccc(OCC(=O)[O-])cc1.[Na+].[Na+].[Na+] [Compound I-3, 1,1,1-Tris-(4-carboxymethoxyphenyl)ethane, trisodium salt]
% Inhibition at: 25 μM: 23.0%
% Inhibition at: 50 μM: 17.7%
% Inhibition at: 100μM: 12.4%

COC(=O)COc1ccc(C(C)(c2ccc(OCC(=O)OC)cc2)c2ccc(OCC(=O)OC)cc2)cc1 [Compound I-4, 1,1,1-Tris-(4-methoxycarbonylmethoxyphenyl)ethane]
% Inhibition at: 25 μM: 18.4%
% Inhibition at: 50 μM: 27.9%
% Inhibition at: 100μM: −11.6%

COc1ccc(C(C(=O)[O-])(c2ccc(OC)cc2)c2ccc(OC)cc2)cc1.[Na+] [Compound I-5, Sodium 1,1,1-tris-(4-methoxyphenyl)acetate]
% Inhibition at: 25 μM: 1.7%
% Inhibition at: 50 μM: 5.0%
% Inhibition at: 100μM: 12.1%

COc1ccc(C(O)(c2ccc(OC)cc2)c2ccc(OC)cc2)cc1 [Compound I-6, 1,1,1-Tris-(4-methoxyphenyl)methanol]
% Inhibition at: 25 μM: 12.0%
% Inhibition at: 50 μM: 25.9%
% Inhibition at: 100μM: 32.5%

COc1ccc([C+](c2ccc(OC)cc2)c2ccc(OC)cc2)cc1 [Compound I-7, 4,4′,4″-Trimethoxytrityl tetrafluoroborate]
% Inhibition at: 25 μM: 15.1%
% Inhibition at: 50 μM: 30.2%
% Inhibition at: 100μM: 25.9%

COc1ccc(C(C(=O)O)(c2ccc(OC)cc2)c2ccc(OC)cc2)cc1 [Compound I-8, 1,1,1-Tris-(4-methoxyphenyl)acetic acid]
% Inhibition at: 25 μM: 2.7%
% Inhibition at: 50 μM: 6.9%
% Inhibition at: 100μM: 18.4%

CC(=O)Oc1ccc(C(C)(c2ccccc2)c2ccc(OC(C)=O)cc2)cc1 [Compound I-10, 1,1-Bis-(4-acetoxyphenyl)-1-phenyl-ethane]
% Inhibition at: 25 μM: 20.7%
% Inhibition at: 50 μM: 46.6%
% Inhibition at: 100μM: 71.9%

COC(=O)COc1ccc(C(C)(c2ccc(O)cc2)c2ccc(O)cc2)cc1 [Compound I-11, 1,1-Bis-(4-hydroxyphenyl)-1-(4-methoxycarbonylmethoxyphenyl)ethane]
% Inhibition at: 25 μM: 13.9%
% Inhibition at: 50 μM: 36.7%
% Inhibition at: 100μM: 14.8%

CC(c1ccc(O)cc1)(c1ccc(OCC(=O)O)cc1)c1ccc(OCC(=O)O)cc1.[Na+].[Na+].[Na+] [Compound I-12, 1,1-Bis-(4-carboxymethoxy-phenyl)-1-(4-hydroxyphenyl)ethane, trisodium salt]
% Inhibition at: 25 μM: 14.5%
% Inhibition at: 50 μM: 16.9%
% Inhibition at: 100μM: 14.2%

CC(c1ccc(OC(=O)CCl)cc1)(c1ccc(OC(=O)CCl)cc1)c1ccc(OC(=O)CCl)cc1 [Compound I-13, 1,1,1-Tris-(4-chloroacetoxyphenyl)ethane]
% Inhibition at: 25 μM: 35.4%
% Inhibition at: 50 μM: 72.2%
% Inhibition at: 100μM: 38.9%

COC(=O)COc1ccc(C(C)(c2ccc(OCC(=O)OC)cc2)c2ccc(OC(C)=O)cc2)cc1 [Compound I-14, 1-(4-Acetoxy-phenyl)-1,1-bis-(4-methoxycarbonylmethoxyphenyl)ethane]
% Inhibition at: 25 μM: 13.4%
% Inhibition at: 50 μM: 30.2%
% Inhibition at: 100μM: 45.3%

CC(c1ccccc1)(c1ccc(OC(=O)CCl)cc1)c1ccc(OC(=O)CCl)cc1 [Compound I-15, 1,1-Bis-(4-chloroacetoxyphenyl)-1-phenylethane]
% Inhibition at: 25 μM: 29.7%
% Inhibition at: 50 μM: 73.8%
% Inhibition at: 100μM: −19.8%

CC(=O)Oc1ccc(C2(c3ccc(OC(C)=O)cc3)C(=O)Nc3ccccc32)cc1 [Compound I-16, 3,3-Bis[4-(acetyloxy)phenyl]-1,3-dihydro-2H-indol-2-one]
% Inhibition at: 25 μM: 4.3%
% Inhibition at: 50 μM: 11.5%
% Inhibition at: 100μM: 17.1%

CN(C)c1ccc(C(O)(c2ccccc2)c2ccc(N(C)C)cc2)cc1 [Compound I-17, 1,1-Bis(4-dimethylaminophenyl)-1-phenyl-methanol]
% Inhibition at: 25 μM: −16.0%
% Inhibition at: 50 μM: −17.0%
% Inhibition at: 100μM: −17.9%

Cc1cc(C(C)(c2ccc(O)cc2)c2cc(C)c(N)c(C)c2)cc(C)c1N [Compound I-18, 1,1-Bis(4-amino-3,5-dimethylphenyl)-1-(4-hydroxyphenyl)-ethane]
% Inhibition at: 25 μM: 22.6%
% Inhibition at: 50 μM: 36.6%
% Inhibition at: 100μM: 53.8%

O=C1OC2(c3ccc(Cl)cc3Oc3cc(Cl)ccc32)c2ccccc21 [II-1, 3′,6′-Dichlorofluorescein]
% Inhibition at: 25 μM: 20.7%
% Inhibition at: 50 μM: 8.8%
% Inhibition at: 100μM: 7.6%

CC(=O)Oc1ccc2c(c1)Oc1cc(OC(C)=O)ccc1C21OC(=O)c2ccccc21 [II-2, 3′,6′-Fluorescein diacetate]
% Inhibition at: 25 μM: 25.4%
% Inhibition at: 50 μM: 23.5%
% Inhibition at: 100μM: 26.0%

O=C(O)c1ccccc1C1c2ccc(Cl)cc2Oc2cc(Cl)ccc21 [II-3, 2-(3,6-Dichloro-9H-xanthen-9-yl)-benzoic acid]
% Inhibition at: 25 μM: 36.2%
% Inhibition at: 50 μM: 45.6%
% Inhibition at: 100μM: 52.4%

O=C(O)c1ccccc1C1c2ccc(O)cc2Oc2cc(O)ccc21 [II-4, 2-(3,6-Dihydroxy-9H-xanthen-9-yl)-benzoic acid]
% Inhibition at: 25 μM: 33.3%
% Inhibition at: 50 μM: 23.6%
% Inhibition at: 100μM: 23.2%

O=C(O)c1ccccc1C1c2ccc(O)cc2Oc2cc(O)ccc21 [II-5, 2-Hydroxy-1,1-bis-hydroxymethyl-ethyl-ammonium; 2-(3,6-dihydroxy-9H-xanthen-9-yl)-benzoate]
% Inhibition at: 25 μM: 25.1%
% Inhibition at: 50 μM: 16.3%
% Inhibition at: 100μM: 21.5%

NC(=O)c1ccccc1C1c2ccc(Cl)cc2Oc2cc(Cl)ccc21 [II-6, 2-(3,6-Dichloro-9H-xanthen-9-yl)-benzamide]
% Inhibition at: 25 μM: 43.3%
% Inhibition at: 50 μM: −6.1%
% Inhibition at: 100μM: −21.7%

O=C([O-])c1ccccc1C(c1ccc(O)cc1)c1ccc(O)cc1.[K+] [II-7, Potassium 2-[bis-(4-hydroxyphenyl)-methyl]-benzoate]
% Inhibition at: 25 μM: 22.5%
% Inhibition at: 50 μM: 19.1%
% Inhibition at: 100μM: 13.2%

O=C([O-])c1ccccc1C1c2ccc(O)cc2Oc2cc(O)ccc21.[K+] [II-8, Potassium 2-(3,6-dihydroxy-9H-xanthen-9-yl)-benzoate]
% Inhibition at: 25 μM: 23.6%
% Inhibition at: 50 μM: 24.7%
% Inhibition at: 100μM: 25.6%

CC(=O)Oc1cc2c(cc1Cl)C1(OC(=O)c3ccccc31)c1cc(Cl)c(OC(C)=O)cc1O2 [II-9, 2′,7′-Dichlorofluorescein diacetate]
% Inhibition at: 25 μM: 6.3%
% Inhibition at: 50 μM: 10.5%
% Inhibition at: 100μM: 22.0%

O=[N+]([O-])c1cccc(NN=C(c2ccc(O)cc2)c2ccc(O)cc2)c1 [III-1, N-(4,4′-Dihydroxybenzhydrylidene)-N′-(3-nitrophenyl)hydrazine]
% Inhibition at: 25 μM: 33.2%
% Inhibition at: 50 μM: 42.5%
% Inhibition at: 100μM: −20.3%

CC(=O)Oc1ccc(C(=NNc2cccc([N+](=O)[O-])c2)c2ccc(OC(C)=O)cc2)cc1 [III-2, 4,4′-Diacetoxybenzophenone-3-nitrophenylhydrazone]
% Inhibition at: 25 μM: 26.9%
% Inhibition at: 50 μM: 42.0%
% Inhibition at: 100μM: −19.8%

O=[N+]([O-])c1cccc(NN=C(c2ccc(Cl)cc2)c2ccc(Cl)cc2)c1 [III-3, N-(4,4′-Dichlorobenzhydrylidene)-N-(3-nitrophenyl)hydrazine]
% Inhibition at: 25 μM: 6.6%
% Inhibition at: 50 μM: 3.4%
% Inhibition at: 100μM: 8.1%
